Consider 2 molecules from US11497793B2, “Compositions and methods for treating glioblastoma” (TEL HASHOMER MEDICAL RESEARCH INFRASTRUCTURE AND SERVICES …, priority 2018, dated 2022).

The star is where a group is joined. Tos = Cc1ccc(S(=O)(=O)*)cc1; CH2Cl = ClC*

In one assay the test system is CNS-1 brain tumor. Briefly: Survival in an animal model of GBM (CNS-1 cells injected into parietal cortex, intratumoral osmotic pump). It is filed as in vivo. To be noted: rat GBM model; osmotic pump into tumor for 14 days; TMZ 2 mg/rat, SIXAC 6.9 μg/rat (20 μg/kg/day); monitored until Day 25. As for the experimental part: CNS-1 cells ([…]) were injected using stereotactic methods into the parietal cortex of rats (n=20, 16 rats survived the surgery).
Five days later (Day 5) the brains of the rats that survived the surgery were examined by MRI and the tumors scored on a scale of 1-3. For each rat, a catheter was placed in the brain tumor and attached to an osmotic pump (Alzet®) releasing one of the following treatments ([…], for 14 days): TMZ 2 mg/rat (n=7), or TMZ 2 mg/rat and SIXAC 6.9 μg/rat (20 μg/kg/day) (n=7) (TMZ was dissolved in saline and 0.1M acetate buffer pH5) (50:50 v/v ratio).
The groups were monitored daily for survival until Day 25.

In the next assay the test system is CNS-1 glioma cell line. In words: Glioma cell proliferation measured by XTT. To be noted: CNS-1 cells, 72 hours, TMZ 500 μM, SIXAC 10 μM, alone or combined. It is filed as cell-based, rat. The protocol:
The following experiment tested the effect of the chemotherapeutic drug temozolomide (“TMZ”) in combination with the peptide conjugate Tosyl-ATLDPR-chloromethylketone (tosyl-SEQ ID NO: 3-CMK) on the proliferation of glioma cells. The peptide conjugate contains 6 amino acids from the N-terminus of PAR-1: ATLDPR (SEQ ID NO: 3), and is denoted herein as “SIXAC”.
In particular, CNS-1 glioma cell line (rat) was treated with either TMZ (500 μM), SIXAC (10 μM) or a combination of TMZ (500 μM) and SIXAC (10 μM) for 72 hours. Proliferation was measured by means of XTT in comparison to non-treated cells (control).

The next assay has as its system C6 rat glioma cells. Briefly: Scratch (wound healing) assay of glioma cell migration. To be noted: 4 h of incubation, SIXAC 1 μM, TMZ 100 μM, alone or combined. In kind it is cell-based. The protocol: C6 rat glioma cells were grown in Dulbecco's modified Eagle's medium (DMEM; Bet Haemek, Biological Industries, Israel) supplemented with 10% fetal bovine serum (Bet Haemek, Biological Industries, Israel) and 1% penicillin and streptomycin in a 5% CO2-humidified atmosphere.
The effect of TMZ and SIXAC on the coordinated movement of C6 glioma cells was evaluated using a wound healing assay. The cells were seeded in 24-well plates at a density of 5×10^4 cells/well. Cells were cultured in FCS-free medium for 24 h. A wound was established by scraping using 10 μl pipette tip. Cells were washed twice with warm PBS and then fresh FCS-free medium was added, containing SIXAC (1 μM), TMZ (100 μM) or a combination of SIXAC and TMZ. Wells with FCS-free medium only or FCS-free medium+DMSO 0.2% were used as controls (marked as “control” and “control+DMSO”) Image acquisition of wound gap closure (%) was carried out following 4 h of incubation using a Nikon Eclipse microscope Images were analyzed using Fiji software.

Another assay relates to PAR-1. Briefly: Western blot of PAR-1 level in glioma cells. It is filed as cell-based, rat. To be noted: CNS-1 cells, 24 h; TMZ 500 μM, SIXAC 10 μM, alone or combined; vs FCS-free medium with 0.2% DMSO. As for the experimental part:
(§1) More particularly, the expression of two proteins, PAR-1 and phosphorylated extracellular signal-regulated kinase (pERK), was examined in glioma cells incubated with TMZ, SIXAC or a combination of TMZ+SIXAC.
(§2) CNS-1 rat glioma cells were grown in Dulbecco's modified Eagle's medium (DMEM; Bet Haemek, Biological Industries, Israel) supplemented with 10% fetal bovine serum (Bet Haemek, Biological Industries, Israel) and 1% penicillin and streptomycin in a 5% CO2-humidified atmosphere.
(§3) CNS-1 cells were seeded and incubated for 24 h. Then the medium was replaced by FCS-free medium for additional 24 h. Next, the cells were treated for 24 h with SIXAC (10 μM), TMZ (500 μM), a combination of TMZ (500 μM) and SIXAC (10 μM) or a FCS-free medium (containing 0.2% DMSO) which was used as a control (n=4 for each treatment group). The cells were then washed with ice-cold PBS and lysed in RIPA buffer (containing in mM: 50 TRIS HCl pH 8, 150 NaCl, 1% NP-40, 0.5% sodium deoxycholate, and 0.1% SDS), a protease inhibitor cocktail (Merck Millipore 539134, 1:100), 0.1 mM sodium orthovanadate and 2 mM PMSF. The cells were scraped, collected and centrifuged (16,000 g×20 min) at 4° C. The supernatants were collected, and protein concentration was determined by means of a bicinchoninic acid (BCA) assay.

Assay [1] has as its system phosphorylated extracellular signal-regulated kinase (pERK). In words: Western blot of pERK level in glioma cells. To be noted: CNS-1 cells, 24 h; TMZ 500 μM, SIXAC 10 μM, alone or combined; vs FCS-free medium with 0.2% DMSO. In kind it is cell-based, rat. The protocol: as §1, §2, §3

In turn, `Cn1nnc2c(C(N)=O)ncn2c1=O` [TMZ, temozolomide, reference compound] displayed a Median survival in the assay on CNS-1 brain tumor of 14 days. Also, the “cell proliferation compared to non-treated cells (control)” value with CNS-1 glioma cell line is “no significant effect”.

As for “tosyl-Ala-Thr-Leu-Asp-Pro-Arg-chloromethylketone (Tos-ATLDPR-CH2Cl; SMILES Cc1ccc(S(=O)(=O)N[C@@H](C)C(=O)N[C@H](C(=O)N[C@@H](CC(C)C)C(=O)N[C@@H](CC(=O)O)C(=O)N2CCC[C@H]2C(=O)N[C@@H](CCCNC(=N)N)C(=O)CCl)[C@@H](C)O)cc1) [SIXAC, peptide conjugate containing 6 amino acids from the N-terminus of PAR-1 with tosyl and chloromethylketone moieties]”, the wound-closure percentage result in the assay with C6 rat glioma cells is on record as “significantly decrease”. In addition, the PAR1 expression entry in the assay on PAR-1 is listed as “did not cause any significant change”. In addition, in the assay with CNS-1 glioma cell line, the “cell proliferation compared to non-treated cells (control)” value is on record as “minor effect”. Besides, the pERK expression result in assay [1] is reported as “did not cause any significant change”.
